Like-named read-outs stand apart in the source and are kept apart here.
Legend:
[1] = Mouse brain concentrations; format: in vivo; conditions: for concentration at 60 min / concentration at 30 min / Kp at 5 min / Kp at 30 min / Kp at 60 min / concentration at 5 min / concentration at 15 min / Kp at 15 min: female, NMRI, mouse; for Kp at 5 min / Kp at 30 min / Kp at 60 min / Kp at 15 min: read-out: Mean plasma:brain ratio (plasma = 1.00)
Protocol: Following sacrifice, the cranium of mice was opened and the brain removed. Excess blood was washed from the brain with distilled water and any excess fluid blotted on absorbent paper. The brain was then snap frozen using liquid nitrogen and placed into a suitably labelled container and stored at approximately −70°C, pending analysis. Brains were homogenized and extracted samples were prepared appropriately for analysis via liquid chromatography-mass spectrometry (LC-MS).
BioDynamics Study No: DND/01
Two groups of female mice were dosed as follows:
Number Treatment Dose (mg/kg) Route
All doses are expressed as free base
Intravenous doses were administered into a lateral tail vein using an appropriately sized syringe and 25G needle and the oral formulation by oral gavage using a polypropylene gavage tube. All doses were given as a single bolus dose at a constant dose volume of 10.0 mL/kg.
1.6 Blood sample collection
At each sampling time point, three animals in each treatment group were deeply anaesthetised using isoflurane and blood samples (approximately 1 mL) taken into individual heparinised tubes by cardiac puncture, following which the animals were killed by cervical fracture. Samples were collected at the following times post-dose:
Following collection, the blood samples were centrifuged (approximately 10000 g, 2 min at 4 °C) and the plasma retained as one aliquot at approximately -70°C prior to analysis of test material concentrations at BioDynamics by LC-MS/MS.
1.7 Collection of terminal brain samples
Following collection of the terminal blood sample the cranium of each mouse was carefully opened and the brain removed. Excess blood was washed from the brain with distilled water and any excess fluid blotted on absorbent paper. The brain was then snap frozen using liquid nitrogen and placed into a suitably labelled container and stored frozen at approximately -70°C pending analysis.
All of the plasma samples together with the brains from the 15 minute time point were analysed for concentrations of the test material and its sulfone and sulfoxide metabolites. In addition the brains from the 5 and 30 minute time points for the intravenously treated and the 30 and 60 minute time points for the orally treated animals were analysed for concentrations of Fexinidazole and its sulfone and sulfoxide metabolites using an LC-MS/MS method developed at BioDynamics.
All samples were treated as temperature sensitive. Blood samples were collected onto wet ice, followed by centrifugation at 4 °C. Plasma and brain samples were snap frozen on dry ice (plasma) or liquid nitrogen (brains) prior to long term storage at less than -70 °C pending analysis.

[2] = Rat single-dose IV and oral pharmacokinetics; format: in vivo; conditions: for AUC(0-t): read-out: AUC0-t(last); for half-life: read-out: t1/2,z (converted)
Protocol: METHODS […] Fexinidazole was given as IV and oral administrations to male Sprague Dawley rats according to the following scheme Rat ID Route Dose (mg/kg) Formulation […] IV dose was administered via the tail vein, the oral dose was administered by gastric gavage. 4.2. […] On the day of dosing, approximately 0.3 mL of blood/sampling time were taken from the cannula using heparinized syringes, transferred immediately into tubes (pre-cooled in an ice/water bath) and centrifuged at […] The separated plasma was split into two aliquots, then stored at -80°C until analysis. […] 4.3. Bioanalytical Method Plasma concentrations of Fexinidazole were determined by a LC-MS-MS method. The lower limit of the bioanalytical method was 5.12 ng/mL. […] Details of the bioanalytical method were reported in Appendix 2 and the analytical performance was reported in Appendix 3. 4.4. […] For the calculations, pre-dose concentrations were set equal to C0.033 and equal to zero after IV and oral administrations, respectively. […] regression line. […] Absolute bioavailability was calculated from the ratio of the average oral to IV dose- normalized AUC0-∞ values. […] Plasma concentrations and pharmacokinetic parameters of Fexinidazole were reported to three significant figures. 5. RESULTS Mean ±SD systemic exposure parameters of Fexinidazole after IV and oral administrations of the compound are reported in Table 1. […] This side […] After oral administration, detectable concentrations of Fexinidazole were measured at the […] Mean ±SD maximal plasma concentration of Fexinidazole was 147 ±37 ng/mL, achieved 2 h post dosing. The concentrations of the compound were detectable up to the end of the experiment (8 h). […] Mean ±SD AUC0-∞ was 662 ±106 ng⋅h/mL. […] 6. CONCLUSIONS After both doses, low variability of the pharmacokinetic parameters of Fexinidazole was observed. […] Report Amendment for Study 0327-2007 2. […] METHODS […] The lower limit of the bioanalytical method was 5.00 ng/mL for both compounds. […] Details of the bioanalytical method are reported in Table 1 and the analytical performances of calibration standards are reported in Tables 2-5. 3.2.

[3] = brain homogenate, oral, 25 mg/kg, fexinidazole 25 mg/kg po, 60 min, read-out: Brain homogenate concentration
[4] = brain, oral, 25 mg/kg, fexinidazole 25 mg/kg po, 30 min, read-out: Brain concentration
[5] = brain, oral, 25 mg/kg, fexinidazole 25 mg/kg po, 30 min, read-out: Brain homogenate concentration
[6] = brain, oral, 25 mg/kg, fexinidazole 25 mg/kg po, 60 min, read-out: Brain concentration
[7] = fexinidazole 25 mg/kg po, 30 min
[8] = fexinidazole 25 mg/kg po, 60 min
[9] = Sprague Dawley, plasma, fexinidazole 5 mg/kg IV, male SD rats, read-out: Cmax (C0.033 for parent)
[10] = male, Sprague Dawley, plasma, fexinidazole 5 mg/kg IV
[11] = male, Sprague Dawley, plasma, fexinidazole 10 mg/kg oral
[12] = male, Sprague Dawley, plasma, fexinidazole 10 mg/kg oral, read-out: Cmax
[13] = brain homogenate, intravenous, 1 mg/kg, fexinidazole 1 mg/kg iv, 5 min, read-out: Brain homogenate concentration
[14] = brain homogenate, intravenous, 1 mg/kg, fexinidazole 1 mg/kg iv, 30 min, read-out: Brain homogenate concentration
[15] = brain, intravenous, 1 mg/kg, fexinidazole 1 mg/kg iv, 5 min, read-out: Brain concentration
[16] = brain, intravenous, 1 mg/kg, fexinidazole 1 mg/kg iv, 30 min, read-out: Brain concentration

Row | SMILES | concentration at 60 min [1, 3] [ng/mL] | concentration at 30 min [1, 4] [ng/g] | concentration at 30 min [1, 5] [ng/mL] | concentration at 60 min [1, 6] [ng/g] | Kp at 5 min ([1]; brain, iv 1 mg/kg, 5 min) | Kp at 30 min ([1]; brain, iv 1 mg/kg, 30 min) | Kp at 30 min ([1]; brain, po 25 mg/kg, 30 min) | Kp at 60 min ([1]; brain, po 25 mg/kg, 60 min) | Brain concentration [1, 7] [ng/g] | Brain concentration [1, 8] [ng/g] | Cmax [2, 9] [ng/mL] | Tmax [2, 10] [h] | AUC(0-t) [2, 10] [ng·h/mL] | Tmax [2, 11] [h] | AUC(0-t) [2, 11] [ng·h/mL] | Cmax [2, 12] [ng/mL] | concentration at 5 min [1, 13] [ng/mL] | concentration at 30 min [1, 14] [ng/mL] | concentration at 5 min [1, 15] [ng/g] | concentration at 30 min [1, 16] [ng/g] | further results
1 | Cn1c([N+](=O)[O-])cnc1COc1ccc(S(C)(=O)=O)cc1 [Fexinidazole sulfone] | 394 | 468 | 156 | 1180 | 0 | 0 | 0.05 | 0.06 | 469 ± 222 | 1183 ± 322 | 2090 | 5.33 | 9590 | 6 | 14300 | 2660 |  |  |  |  | Brain homogenate concentration ([1]; fexinidazole 1 mg/kg iv, 5 min): BLQ; Brain homogenate concentration ([1]; fexinidazole 1 mg/kg iv, 30 min): BLQ
2 | Cn1c([N+](=O)[O-])cnc1COc1ccc([S+](C)[O-])cc1 (stereo not shown) [Fexinidazole sulfoxide] | 1620 | 3310 | 1100 | 4870 | 0.045 | 0.064 | 0.078 | 0.12 | 3315 ± 1611 | 4873 ± 2335 | 3070 | 1 | 9440 | 2 | 16200 | 3520 | 39.9 | 57.6 | 120 | 173 | 
3 | CSc1ccc(OCc2ncc([N+](=O)[O-])n2C)cc1 [Fexinidazole, 1-methyl-2-((p-(methylthio)phenoxy)methyl)-5-nitroimidazole] | 254 | 800 | 266 | 763 | 0.56 | 1.03 | 1.16 | 1.22 | 800 ± 92.6 | 763 ± 90.7 | 3660 ± 217 |  | 1160 | 2 | 631 | 147 ± 36.6 | 92.5 | 12.1 | 277 | 36.2 | concentration at 15 min ([1]; brain homogenate, intravenous, 1 mg/kg, fexinidazole 1 mg/kg iv, 15 min, read-out: Brain homogenate concentration): 21.3 ng/mL; concentration at 15 min ([1]; brain homogenate, oral, 25 mg/kg, fexinidazole 25 mg/kg po, 15 min, read-out: Brain homogenate concentration): 379 ng/mL; concentration at 15 min ([1]; brain, intravenous, 1 mg/kg, fexinidazole 1 mg/kg iv, 15 min, read-out: Brain concentration): 63.8 ng/g; concentration at 15 min ([1]; brain, oral, 25 mg/kg, fexinidazole 25 mg/kg po, 15 min, read-out: Brain concentration): 1140 ng/g; Kp at 15 min ([1]; brain, iv 1 mg/kg, 15 min): 0.76; Kp at 15 min ([1]; brain, po 25 mg/kg, 15 min): 0.76; Brain concentration ([1]; fexinidazole 25 mg/kg po, 15 min): 1136 ± 54.1 ng/g; clearance ([2]; male, Sprague Dawley, plasma, 5 mg/kg IV): 76.2 mL/min/kg; Vd ([2]; male, Sprague Dawley, plasma, 5 mg/kg IV, read-out: Vss): 4.69 L/kg; half-life [2, 10]: 103 min; half-life [2, 11]: 103 min; AUC(0-inf) ([2]; male, Sprague Dawley, plasma, iv, 5 mg/kg, fexinidazole 5 mg/kg IV, read-out: AUC0-∞): 1200 ± 26.5 ng·h/mL; bioavailability ([2]; male, Sprague Dawley, plasma, oral, 10 mg/kg, oral 10 mg/kg vs IV 5 mg/kg, read-out: Absolute bioavailability F): 30%; AUC(0-inf) ([2]; male, Sprague Dawley, plasma, po, 10 mg/kg, fexinidazole 10 mg/kg oral, read-out: AUC0-∞): 662 ± 106 ng·h/mL; AUC(0-inf) ([2]; male, Sprague Dawley, plasma, po, 10 mg/kg, oral, normalized to 1 mg/kg, read-out: AUC0-∞, norm): 65.1 ng·h/mL; Absolute bioavailability F ([2]; oral 10 mg/kg vs IV 5 mg/kg): 29.7%

Reference: paper PMC3006138, “Fexinidazole – A New Oral Nitroimidazole Drug Candidate Entering Clinical Development for the Treatment of Sleeping Sickness” (PLoS Neglected Tropical Diseases, 2010)
